Test results published in PMC9225722, “Synthesis and biological evaluation of thieno[3,2-c]pyrazol-3-amine derivatives as potent glycogen synthase kinase 3β inhibitors for Alzheimer’s disease” (Journal of Enzyme Inhibition and Medicinal Chemistry, 2022).

Columns and labels:
[1] = test system: phosphorylation of GSK-3β at Ser9; assay: Western blot of p-GSK-3β (Ser9) in SH-SY5Y cells; type: cell-based, human; conditions: 2.5 h, control 0.33
Description: GSK-3β is activated by phosphorylation at Tyr216 and is inhibited by phosphorylation at Ser9 [48]. As one of the substrates of Akt (protein kinase B), GSK-3 can inhibit Akt[49]. The inhibition of GSK-3β increases the p-Akt expression and activates the PI3K/Akt pathway, and that, in turn, phosphorylates the GSK-3β at the Ser9 site[50]^,[51]. […] As shown in Figure 6(A), LiCl greatly promoted GSK-3β phosphorylation at Ser9 (p-GSK-3β/GAPDH: 0.60 vs 0.33). […] Therefore, in cellular level, compound 16b was confirmed to have a direct effect on GSK-3β.
Figure 6. (A) The effect of 16b on phosphorylation of GSK-3β at Ser9; (B) the effect of 16b on β-catenin abundance. Protein expressions were detected by immunoblot analysis with a specific antibody. Values are reported as the mean ± SD of three independent experiments. *p < 0.05, **p < 0.01, ***p < 0.001 vs control.
SH-SY5Y cells (1 × 10^6) were seeded in 12-well plates (Corning, Los Altos, MA, USA) and incubated with compound 16b or LiCl at the indicated concentrations for 2.5 h at 37 °C in 5% CO2. At the end of incubation, cells were lysed by addition of ice-cold RIPA buffer containing a protease inhibitor cocktail. The protein quantification was determined using a BCA protein assay kit (Jiangsu KeyGEN BioTECH Co., Ltd., Nanjing, China). Cellular lysates were mixed with an equal volume of SDS (sodium dodecyl sulfate) loading buffer (Jiangsu KeyGEN BioTECH Co., Ltd., Nanjing, China) and separated by electrophoresis (Bio-rad Power Supplies Basic, Shanghai, China) in polyacrylamide gel. Proteins were transferred from acrylamide gels to nitrocellulose membranes and blocked in a blocking buffer (PBS, 5% non-fat milk) for 1.5 to 2 h at 20 °C. […] The blots were washed by TBST for 20 min and detected with ECL chemiluminescent reagent (Jiangsu KeyGEN BioTECH Co., Ltd., Nanjing, China) for 3 min. Pixel intensity was quantitated using gel imaging system (SYNGENE G:BOX/iChemi XR5, ISS, San Diego, CA, US) and Gel-Pro32 software (Media Cybernetics, Bethesda, MD, USA). […]

GSK-3α = target: T1, GSK-3α (Homo sapiens, UniProt P49840); assay: Kinase selectivity screen (enzymatic radioactive assay, Eurofins Cerep); type: biochemical; conditions: 1.0 μM compound, Km ATP
T1 construct: purchased Eurofins Cerep SA (contract assay service)
T1 sequence (P49840 whole entry): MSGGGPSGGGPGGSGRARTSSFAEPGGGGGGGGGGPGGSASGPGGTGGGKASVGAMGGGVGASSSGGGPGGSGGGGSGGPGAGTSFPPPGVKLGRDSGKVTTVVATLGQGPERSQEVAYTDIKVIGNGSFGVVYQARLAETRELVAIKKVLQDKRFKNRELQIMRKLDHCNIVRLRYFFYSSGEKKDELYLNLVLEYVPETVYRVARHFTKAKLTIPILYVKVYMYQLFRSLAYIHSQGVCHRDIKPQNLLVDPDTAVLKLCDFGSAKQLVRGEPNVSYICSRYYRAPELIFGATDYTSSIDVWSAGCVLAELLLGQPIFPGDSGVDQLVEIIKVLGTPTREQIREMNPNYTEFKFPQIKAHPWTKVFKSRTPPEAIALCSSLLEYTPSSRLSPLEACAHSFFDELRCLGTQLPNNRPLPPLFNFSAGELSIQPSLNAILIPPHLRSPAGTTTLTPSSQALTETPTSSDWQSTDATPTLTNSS
Description: (§1) The potent GSK-3β inhibitor 16b was next subjected to kinase selectivity assay. A panel of kinases which were structurally related to GSK-3β was used for the GSK-3β selectivity studies[26]^,[37]^,[38]. […] GSK-3α and GSK-3β are known to share a 98% sequence homology at the catalytic site[42]. CDK5 and GSK-3 belong to the CMGC protein kinase family, which shared highly homology with each other[43]^,[44]. CDK5 is known abnormally activated and also responsible for the tau hyperphosphorylation in AD[45]. It was known that Aβ could increase CK2 activity, which in turn accelerated the tau phosphorylation in AD[46]. Therefore, the inhibition of CDK5 and CK2 by 16b may be beneficial for its anti-AD activities.
(§2) Figure 3. Effects of compound 16b on the activities of 21 protein kinases in vitro. Protein kinases were of human origin and assayed in the presence of 1.0 μM compound 16b or vehicle (DMSO). The enzymatic activity was measured in the presence of Km ATP. Kinase activities were given as the mean of twice determinations. AMPKα1, AMP-activated protein kinase 1; AMPKα2, AMP-activated protein kinase 2; CDK4/cyclinD3, cyclin-dependent protein kinase-4/cyclinD3; CDK5/p35, cyclin-dependent protein kinase-5/p35; CHK1, checkpoint kinase-1; CK2, casein kinase-2; Lck, lymphocyte kinase; MSK1, mitogen- and stress-activated protein kinase-1; p70S6K, p70 ribosomal protein S6 kinase; PDK1, 3-phosphoinositide-dependent protein kinase-1; PKA, cAMP-dependent protein kinase; PKBα, protein kinase Bα; PKCα, protein kinase Cα; PRAK, p38-regulated/activated kinase; SAPK2a, stress-activated protein kinase-2a; SAPK2b, stress-activated protein kinase-2b; SAPK3, stress-activated protein kinase-3; SAPK4, stress-activated protein kinase-4; SGK, serum- and glucocorticoid-induced protein kinase.
(§3) Compound 16b was evaluated for kinase selectivity at Eurofins Cerep SA (Celle-L’Evescault, France) in enzymatic radioactive assays in a panel of 21 different kinases (including GSK-3β) from diverse families. […] The enzymatic activity was measured in the presence of Km ATP.

CK2 = target: T2, CK2 (Homo sapiens, UniProt P68400); assay: as above; type: biochemical; conditions: 1.0 μM compound, Km ATP
T2 construct: purchased Eurofins Cerep SA (contract assay service)
T2 sequence (P68400 whole entry): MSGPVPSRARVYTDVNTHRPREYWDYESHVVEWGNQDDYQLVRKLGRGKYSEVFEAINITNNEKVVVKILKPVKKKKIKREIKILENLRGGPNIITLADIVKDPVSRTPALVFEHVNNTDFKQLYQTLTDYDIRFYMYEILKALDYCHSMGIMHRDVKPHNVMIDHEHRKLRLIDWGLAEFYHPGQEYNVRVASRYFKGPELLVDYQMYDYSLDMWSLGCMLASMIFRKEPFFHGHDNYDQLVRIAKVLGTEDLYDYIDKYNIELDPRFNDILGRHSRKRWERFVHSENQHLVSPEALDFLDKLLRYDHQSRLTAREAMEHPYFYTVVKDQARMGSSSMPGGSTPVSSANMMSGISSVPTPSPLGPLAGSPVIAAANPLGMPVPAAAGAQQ
Description: as §1, §2, §3

CDK5/p35 = target: T3, CDK5/p35 (Homo sapiens, UniProt Q00535); assay: as above; type: biochemical; conditions: 1.0 μM compound, Km ATP
T3 construct: purchased Eurofins Cerep SA (contract assay service)
T3 sequence (Q00535 whole entry): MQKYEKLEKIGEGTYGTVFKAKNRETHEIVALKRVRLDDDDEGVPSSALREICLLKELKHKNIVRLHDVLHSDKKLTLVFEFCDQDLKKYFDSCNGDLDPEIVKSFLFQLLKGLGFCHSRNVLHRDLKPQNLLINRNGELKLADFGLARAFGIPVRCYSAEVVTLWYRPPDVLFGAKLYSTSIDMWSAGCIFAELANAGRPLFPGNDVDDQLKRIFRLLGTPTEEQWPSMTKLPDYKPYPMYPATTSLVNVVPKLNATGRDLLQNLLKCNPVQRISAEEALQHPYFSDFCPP
T3 sequence (Q15078 whole entry partner): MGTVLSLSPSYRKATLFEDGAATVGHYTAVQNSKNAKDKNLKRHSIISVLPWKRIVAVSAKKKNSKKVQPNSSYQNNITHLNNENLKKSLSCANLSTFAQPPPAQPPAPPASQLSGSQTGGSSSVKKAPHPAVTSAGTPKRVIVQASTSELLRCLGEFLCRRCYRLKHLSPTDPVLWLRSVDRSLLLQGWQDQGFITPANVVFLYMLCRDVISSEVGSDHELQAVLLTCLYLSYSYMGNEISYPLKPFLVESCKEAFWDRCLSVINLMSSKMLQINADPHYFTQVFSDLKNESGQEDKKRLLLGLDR
Description: as §1, §2, §3

CC(C)C(=O)Nc1n[nH]c2cc(-c3cccnc3)sc12 [Compound 16b, N-(5-(pyridin-3-yl)-1H-thieno[3,2-c]pyrazol-3-yl)isobutyramide]
p-GSK-3β/GAPDH ratio (Ser9) ([1]; 10 μM): 0.41 | p-GSK-3β/GAPDH ratio (Ser9) ([1]; 20 μM): 0.50 | selectivity over GSK-3α (GSK-3α): low selectivity | selectivity over CK2 (CK2): moderate selectivity | selectivity over CDK5 (CDK5/p35): low selectivity
